Data taken from patent US10730889B2, “Amido spirocyclic amide and sulfonamide derivatives” (Forma TM, LLC, priority 2012, dated 2020).

Tested on: A2780 cells
Experiment: In-vitro cell proliferation assay (SRB, 72 hours)
Format: cell-based
Settings: Homo sapiens, A2780, 72 h, A2780 cells, 72 hours, SRB; read-out: Cell Proliferation (IC50)

SMILES | IC50
CC(C)N1CCC(n2cc(C(=O)N3CCC4(CC3)CC4CNC(=O)c3cc4ccncc4o3)cn2)C1 (stereo not shown) [Example 303, N-[[6-(1-(1-isopropylpyrrolidin-3-yl)pyrazole-4-carbonyl]-6-azaspiro[2.5]octan-2-yl]methyl]furo[2,3-c]pyridine-2-carboxamide] | 2000 nM
Cc1nn(C)cc1-c1cc(C(=O)N2CCC3(CC2)CC3CNC(=O)c2cc3ccncc3o2)no1 (stereo not shown) [Example 305, N-[[6-[5-(1,3-dimethylpyrazol-4-yl)isoxazole-3-carbonyl]-6-azaspiro[2.5]octan-2-yl]methyl]furo[2,3-c]pyridine-2-carboxamide] | 61.2 nM
CN1CCC(n2cc(C(=O)N3CCC4(CC3)CC4CNC(=O)c3cc4ccncc4o3)cn2)C1 (stereo not shown) [Example 307, N-[[6-[1-(1-methylpyrrolidin-3-yl)pyrazole-4-carbonyl]-6-azaspiro[2.5]octan-2-yl]methyl]furo[2,3-c]pyridine-2-carboxamide] | 26.7 nM
Cc1nc2ccccn2c1C(=O)N1CCC2(CC1)CC2CNC(=O)c1cc2ccncc2o1 (stereo not shown) [Example 309, N-[[6-(2-methylimidazo[1,2-a]pyridine-3-carbonyl)-6-azaspiro[2.5]octan-2-yl]methyl]furo[2,3-c]pyridine-2-carboxamide] | 24.7 nM
Cc1ccc2nc(C(=O)N3CCC4(CC3)CC4CNC(=O)c3cc4ccncc4o3)[nH]c2c1 (stereo not shown) [Example 310, N-[[6-(6-methyl-1H-benzimidazole-2-carbonyl)-6-azaspiro[2.5]octan-2-yl]methyl]furo[2,3-c]pyridine-2-carboxamide] | 30.8 nM
Cc1cccc2nc(C(=O)N3CCC4(CC3)CC4CNC(=O)c3cc4ccncc4o3)cn12 (stereo not shown) [Example 311, N-[[6-(5-methylimidazo[1,2-a]pyridine-2-carbonyl)-6-azaspiro[2.5]octan-2-yl]methyl]furo[2,3-c]pyridine-2-carboxamide] | 12.1 nM
O=C(NCC1CC12CCN(C(=O)c1cc3ncccn3n1)CC2)c1cc2ccncc2o1 (stereo not shown) [Example 313, N-[[6-(pyrazolo[1,5-a]pyrimidine-2-carbonyl)-6-azaspiro[2.5]octan-2-yl]methyl]furo[2,3-c]pyridine-2-carboxamide] | 15.9 nM
Cc1ccc2nc(C(=O)N3CCC4(CC3)CC4CNC(=O)c3cc4ccncc4o3)cn2c1 (stereo not shown) [Example 315, N-[[6-(6-methylimidazo[1,2-a]pyridine-2-carbonyl)-6-azaspiro[2.5]octan-2-yl]methyl]furo[2,3-c]pyridine-2-carboxamide] | 104 nM
O=C(NCC1CC12CCN(C(=O)c1cnn3ccccc13)CC2)c1cc2ccncc2o1 (stereo not shown) [Example 316, N-[[6-(pyrazolo[1,5-a]pyridine-3-carbonyl)-6-azaspiro[2.5]octan-2-yl]methyl]furo[2,3-c]pyridine-2-carboxamide] | 2000 nM
O=C(NCC1CC12CCN(C(=O)c1cn3cccnc3n1)CC2)c1cc2ccncc2o1 (stereo not shown) [Example 320, N-[[6-(imidazo[1,2-a]pyrimidine-2-carbonyl)-6-azaspiro[2.5]octan-2-yl]methyl]furo[2,3-c]pyridine-2-carboxamide] | 549 nM
O=C(NCC1CC12CCN(C(=O)c1cnn3cccnc13)CC2)c1cc2ccncc2o1 (stereo not shown) [Example 321, N-[[6-(pyrazolo[1,5-a]pyrimidine-3-carbonyl)-6-azaspiro[2.5]oclan-2-yl]methyl]furo[2,3-c]pyridine-2-carboxamide] | 2000 nM
O=C(NCC1CC12CCN(C(=O)c1cnoc1C1CC1)CC2)c1cc2ccncc2o1 (stereo not shown) [Example 328, N-[[6-(5-cyclopropylisoxazole-4-carbonyl)-6-azaspiro[2.5]octan-2-yl]methyl]furo[2,3-c]pyridine-2-carboxamide] | 83.4 nM
Cc1ncoc1C(=O)N1CCC2(CC1)CC2CNC(=O)c1cc2ccncc2o1 (stereo not shown) [Example 331, N-[[6-(4-methyloxazole-5-carbonyl)-6-azaspiro[2.5]octan-2-yl]methyl]furo[2,3-c]pyridine-2-carboxamide] | 7.04 nM
O=C(NCC1CC12CCN(C(=O)c1cnco1)CC2)c1cc2ccncc2o1 (stereo not shown) [Example 336, N-[[6-(oxazole-5-carbonyl)-6-azaspiro[2.5]octan-2-yl]methyl]furo[2,3-c]pyridine-2-carboxamide] | 63.5 nM
O=C(NCC1CC12CCN(C(=O)c1cnoc1)CC2)c1cc2ccncc2o1 (stereo not shown) [Example 337, N-[[6-(isoxazole-4-carbonyl)-6-azaspiro[2.5]octan-2-yl]methyl]furo[2,3-c]pyridine-2-carboxamide] | 23.1 nM

More lines, now with the values ahead:

IC50 | SMILES
90.3 nM | O=C(NCC1CC12CCN(C(=O)c1n[nH]c3ccccc13)CC2)c1cc2ccncc2o1 (stereo not shown) [Example 302, N-[[6-(1H-indazole-3-carbonyl)-6-azaspiro[2.5]octan-2-yl]methyl]furo(2,3-c]pyridine-2-carboxamide]
38.8 nM | CC(C)(C)OC(=O)N1Cc2[nH]nc(C(=O)N3CCC4(CC3)CC4CNC(=O)c3cc4ccncc4o3)c2C1 (stereo not shown) [Example 306, tert-butyl 3-[2-[(furo[2,3-c]pyridine-2-carbonylamino)methyl]-6-azaspiro[2.5]octane-6-carbonyl]-4,6-dihydro-1H-pyrrolo[3,4-c]pyrazole-5-carboxylate]
2000 nM | Cc1cc(C(=O)N2CCC3(CC2)CC3CNC(=O)c2cc3ccncc3o2)n(C(C)(C)C)n1 (stereo not shown) [Example 308, N-[[6-(2-tert-butyl-5-methyl-pyrazole-3-carbonyl)-6-azaspiro[2.5]octan-2-yl]methyl]furo[2,3-c]pyridine-2-carboxamide]
9.61 nM | O=C(NCC1CC12CCN(C(=O)c1n[nH]c3cc(F)ccc13)CC2)c1cc2ccncc2o1 (stereo not shown) [Example 312, N-[[6-(6-fluoro-1H-indazole-3-carbonyl)-6-azaspiro[2.5]octan-2-yl]methyl]furo[2,3-c]pyridine-2-carboxamide]
6.76 nM | CCn1nc(C)c(C(=O)N2CCC3(CC2)CC3CNC(=O)c2cc3ccncc3o2)c1C (stereo not shown) [Example 314, N-[[6-(1-ethyl-3,5-dimethyl-pyrazole-4-carbonyl)-6-azaspiro[2.5]octan-2-yl]methyl]furo[2,3-c]pyridine-2-carboxamide]
2000 nM | CC(C)c1oncc1C(=O)N1CCC2(CC1)CC2CNC(=O)c1cc2ccncc2o1 (stereo not shown) [Example 318, N-[[6-(5-isopropylisoxazole-4-carbonyl)-6-azaspiro[2.5]octan-2-yl]methyl]furo[2,3-c]pyridine-2-carboxamide]
55 nM | CC(C)Cc1cc(C(=O)N2CCC3(CC2)CC3CNC(=O)c2cc3ccncc3o2)[nH]n1 (stereo not shown) [Example 319, N-[[6-(3-isobutyl-1H-pyrazole-5-carbonyl)-6-azaspiro[2.5]octan-2-yl]methyl]furo[2,3-c]pyridine-2-carboxamide]
15.1 nM | CC(C)(C)c1cc(C(=O)N2CCC3(CC2)CC3CNC(=O)c2cc3ccncc3o2)[nH]n1 (stereo not shown) [Example 322, N-[[6-(3-tert-butyl-1H-pyrazole-5-carbonyl)-6-azaspiro[2.5]octan-2-yl]methyl]furo[2,3-c]pyridine-2-carboxamide]
2000 nM | CC(C)c1cc(C(=O)N2CCC3(CC2)CC3CNC(=O)c2cc3ccncc3o2)n[nH]1 (stereo not shown) [Example 323, N-[[6-(5-isopropyl-1H-pyrazole-3-carbonyl)-6-azaspiro[2.5]octan-2-yl]methyl]furo[2,3-c]pyridine-2-carboxamide]
109 nM | CC(C)c1n[nH]cc1C(=O)N1CCC2(CC1)CC2CNC(=O)c1cc2ccncc2o1 (stereo not shown) [Example 324, N-[[6-(3-isopropyl-1H-pyrazole-4-carbonyl)-6-azaspiro[2.5]octan-2-yl]methyl]furo[2,3-c]pyridine-2-carboxamide]
24.7 nM | CC(C)n1nccc1C(=O)N1CCC2(CC1)CC2CNC(=O)c1cc2ccncc2o1 (stereo not shown) [Example 325, N-[[6-(2-isopropylpyrazole-3-carbonyl)-6-azaspiro[2.5]octan-2-yl]methy]furo[2,3-c]pyridine-2-carboxamide]
10.9 nM | CCc1cc(C(=O)N2CCC3(CC2)CC3CNC(=O)c2cc3ccncc3o2)n(C)n1 (stereo not shown) [Example 326, N-[[6-(5-ethyl-2-methyl-pyrazole-3-carbonyl)-6-azaspiro[2.5]octan-2-yl]methyl]furo[2,3-c]pyridine-2-carboxamide]
77.6 nM | O=C(NCC1CC12CCN(C(=O)c1cc(C3CC3)on1)CC2)c1cc2ccncc2o1 (stereo not shown) [Example 327, N-[[6-(5-cyclopropylisoxazole-3-carbonyl)-6-azaspiro[2.5]octan-2-yl]methyl]furo[2,3-c]pyridine-2-carboxamide]
55.1 nM | Cc1n[nH]c(C)c1C(=O)N1CCC2(CC1)CC2CNC(=O)c1cc2ccncc2o1 (stereo not shown) [Example 329, N-[[6-(3,5-dimethyl-1H-pyrazole-4-carbonyl)-6-azaspiro[2.5]octan-2-yl]methyl]furo[2,3-c]pyridine-2-carboxamide]
159 nM | Cc1c(C(=O)N2CCC3(CC2)CC3CNC(=O)c2cc3ccncc3o2)cnn1C (stereo not shown) [Example 330, N-[[6-(1,5-dmiethylpyrazole-4-carbonyl)-6-azaspiro[2.5]octan-2-yl]methyl]furo[2,3-c]pyridine-2-carboxamide]
33.8 nM | O=C(NCC1CC12CCN(C(=O)c1c[nH]nc1C1CC1)CC2)c1cc2ccncc2o1 (stereo not shown) [Example 332, N-[[6-(3-cyclopropyl-1H-pyrazole-4-carbonyl)-6-azaspiro[2.5]oetan-2-yl]methyl]furo[2,3-c]pyridine-2-carboxamide]
6.81 nM | O=C(NCC1CC12CCN(C(=O)c1n[nH]c3c1CCC3)CC2)c1cc2ccncc2o1 (stereo not shown) [Example 333, N-[[6-(1,4,5,6-tetrahydrocyclopenta[c]pyrazole-3-carbonyl)-6-azaspiro[2.5]octan-2-yl]methyl]furo[2,3-c]pyridine-2-carboxamide]
56.5 nM | Cc1nc(C(=O)N2CCC3(CC2)CC3CNC(=O)c2cc3ccncc3o2)c(C)o1 (stereo not shown) [Example 334, N-[[6-(2,5-dimethyloxazole-4-carbonyl)-6-azaspiro[2.5]octan-2-yl]methyl]furo[2,3-c]pyridine-2-carboxamide]
590 nM | Cc1nn(C)cc1C(=O)N1CCC2(CC1)CC2CNC(=O)c1cc2ccncc2o1 (stereo not shown) [Example 335, N-[[6-(1,3-dimethylpyrazole-4-carbonyl)-6-azaspiro[2.5]octan-2-yl]methyl]furo[2,3-c]pyridine-2-carboxamide]
